Values quoted from earlier work as cited in patent publication US6525095B1, “Propionate feed supplement” (New Mexico State University Technology Transfer Corporation, priority 2000, dated 2003).

System: swine
Conditions: for Average daily gain / Average feed intake per day / Total insulin: 200 ppb chromium in feed

Molecule | Average daily gain | Average feed intake per day | Total insulin | Glucose clearance (during the insulin challenge) | Glucose half-life (during the insulin challenge)
CCC(=O)[O-].CCC(=O)[O-].CCC(=O)[O-].[Cr+3] [chromium (III) propionate] | decrease | decrease | remained unaffected | increased slightly more | decreased
chromium (III) tripicolinate | decrease | decrease | remained unaffected | – | decreased
